Bounds are passed on as bounds.

These results are taken from US20100247659A1, “PHENYLPHTHALIMIDE ANALOGS FOR TREATING DIABETIC MACULAR EDEMA” (Charlesson, LLC, priority 2007, published 2010).

For experiment [1], the system named is HUVEC. Briefly: MTT cell proliferation assay, HUVEC. In kind it is cell-based. The following applies: Homo sapiens, 72 h, treated 3 days, read-out: IC50, inhibition of proliferation of HUVEC. An excerpt: (§1) Cell culture: All cell culture media and supplements were purchased from Cellgro unless otherwise indicated. Human Umbilical Vein Endothelial Cells (HUVEC) were obtained from American Type Culture Collection and grown in the EBM-MV2 medium (Clonetics). Bovine Retinal Endothelial Cells (BREC) and pericytes were isolated according to a modified method as described previously (Wong, et al. Investig. Opthalmol. Vis. Sci. 1987, 28: 1767-1775). Twelve bovine eyes were obtained from a local slaughterhouse (Country Home Meats). The retinas were removed and washed four times in DMEM. Subsequently retinas were homogenized and centrifuged at 400×g for 10 min. The resultant pellet was resuspended in an isolation medium (DMEM with 100 IU/ml penicillin, 100 μg/ml streptomycin and 250 ng/ml amphotericin). Microvessels were trapped on an 85 μm nylon mesh (Locker Wire Weavers LTD) and transferred to a petri dish (Falcon) containing 10 ml of an enzyme cocktail which consisted of 600 μg/ml DNase I (Sigma), 165 μg/ml collagenase (Sigma) and 700 μg/ml Pronase E (EMD) and were incubated at 37° C. for 20 min. The resultant vessel fragments were trapped on a 53 μm nylon mesh (Locker Wire Weavers LTD), washed with the isolation medium and centrifuged at 400×g for 5 min. For selective culture of pericytes, the resultant pellet was resuspended in 10 ml of the pericyte growth medium and transferred into 75-cm^2 plastic tissue culture flasks (BD Biosciences). For selective culture of BRCECs, the resultant pellet was resuspended in 10 ml of the BRCEC growth medium and transferred into 75-cm^2 collagen-coated plastic tissue culture flasks (BD Biosciences). The BRCEC growth medium consisted of DMEM supplemented with 10% human serum, 1% glutamine, 1 mg/ml insulin, 550 μg/ml transferring, 670 ng/ml selenium, 100 IU/ml penicillin, 100 μg/ml streptomycin, 250 ng/ml amphotericin, 90 μg/ml heparin (Sigma) and 15 μg/ml endothelial cell growth supplement (Upstate). Cells were cultured at 37° C. and 5% CO2 with regular medium change every 3 days. Confluence cultures were passaged by detaching the cells with 0.25% trypsin and plated at a split 1:3. […] At passage 2, BRCECs and pericytes were stored in a liquid nitrogen tank for future use.
MTT assay: Cells were seeded at a density of 5×10^4 cells per well in 400 μl of growth medium in triplicate in 24-well plates (Nalge Nunc) or gelatin-coated 24-well plates. Twenty-four hours after seeding, the growth medium was replaced by a medium containing 1% FBS, with or without different concentrations of thalidomide or phenylphthalimide analogs. After the cells were treated for 48-72 h, MTT was added to a final concentration of 0.5 mg of medium per ml and incubated for 4 h at 37° C. in 5% CO2. An equal volume of solubilizer buffer is then added, following the protocol recommended by the manufacturer (Roche Molecular Biochemicals), the cells will be incubated overnight at 37° C. in 5% CO2. The absorbance of the formazen product was measured at a wavelength of 570 nm, with 750 nm as the (subtracted) reference wavelength.
Primary endothelial cells (HUVEC and BRCEC) and pericytes were treated with various concentrations of the compounds for 3 days. Viable cells were quantified using MTT assay and IC50 of each compound was calculated (mean±SD, n=3, FIG. 1). The IC50 values represent the means and SE of 3 independent experiments.

The test system of another experiment is BRCEC. Briefly: MTT cell proliferation assay, BRCEC. Type of experiment: cell-based, bovine. Conditions: Bos taurus, 72 h, treated 3 days, read-out: IC50, inhibition of proliferation of BRCEC.
Excerpt: as §1
MTT assay: Cells were seeded at a density of 5×10^4 cells per well in 400 μl of growth medium in triplicate in 24-well plates (Nalge Nunc) or gelatin-coated 24-well plates. […] The absorbance of the formazen product was measured at a wavelength of 570 nm, with 750 nm as the (subtracted) reference wavelength.
Primary endothelial cells (HUVEC and BRCEC) and pericytes were treated with various concentrations of the compounds for 3 days. Viable cells were quantified using MTT assay and IC50 of each compound was calculated (mean±SD, n=3, FIG. 1). […]

For experiment [2], the system named is CAM blood vessel formation induced by VEGF/bFGF. Briefly: Chicken chorioallantoic membrane (CAM) assay. Type of experiment: in vivo. The following applies: 200 ng VEGF-165/bFGF, 48 hr. How it is done:
Chicken chorioallantoic membrane (CAM) assay: The fertile Leghorn chicken eggs were incubated in a humidified environment at 37.5° C. for 10 days. […] Anti-angiogenic compounds were then added 8 hr after the VEGF/bFGF at saturation to the same microbial testing disk, and the embryos were incubated for an additional 40 h. CAMs were then removed, quickly fixed with 4% paraformaldehyde in PBS, placed onto Petri dishes, and digitized images taken at 7.5× using a Nikon dissecting microscope and Scion Imaging system. A 1×1-cm grid was then added to the digital CAM images and the average number of vessels within 5-7 grids counted as a measure of vascularity.
CAM assay was used for in vivo anti-angiogenic studies. The fertile leghorn chicken eggs were allowed to incubate in a humidified environment at 37.5° C. for 10 days. […] Anti-angiogenic compounds were then added 8 hours after the VEGF/bFGF at saturation to the same microbial testing disk and embryos allowed to incubate for an additional 40 hours. After 48 hr, CAMs were removed, quickly fixed with 4% paraformaldehyde in PBS, placed onto Petri dishes, and digitized images taken at 7.5× using a Nikon dissecting microscope and Scion Imaging system. A 1×1-cm grid was then added to the digital CAM images and the average number of vessels within 5-7 grids counted as a measure of vascularity.
FIG. 14 is a table comparing the effect of Compound 4 on blood vessel formation. […] Data represent mean±SD of 8-16 samples from 2-3 separate experiments.

Experiment [3] concerns HUVEC. Briefly: Endothelial cell migration (invasion) assay. In kind it is cell-based. The following applies: Homo sapiens, VEGF 4 ng/ml, invasion through Matrigel, read-out: IC50, inhibition of HUVEC migration.
Procedure: Cells were allowed to invade for 22±1 hours. Cells were labeled post invasion with Calcein AM (4 μg/ml) and measured by detecting the fluorescence of cells that invaded through the BD Matrigel™ Matrix with an Applied Biosystems CytoFluor® 4000 plate reader at 485 nm excitation and 530 nm emission.
In this assay system, human endothelial cells are allowed to invade and are then labeled with fluorescent dye Calcein AM before quantification on a fluorometer.
In FIG. 2B, cells were seeded at 5×10^4/insert in EBM-2 containing 0.1% BSA in multi-well inserts. The assembled assays were allowed to proceed for 6 hours. The results are expressed as percent inhibition of migration as compared to control (no inhibitor). Data represents the average of 3 experiments, each run in triplicate. The bars represent mean±SD.
The next experiment concerns STZ-diabetic rats. Briefly: Retinal vascular leakage in STZ-diabetic rats, intravitreal injection. Type of experiment: in vivo, rat. Conditions: single intravitreal 1.0 μg/eye (5 μl 0.8 mM), 48 h.

Procedure for STZ-diabetic rats: Induction of diabetes by streptozotocin (STZ): BN rats (8 weeks of age) were given a single intraperitoneal injection of fresh made streptozotocin (STZ) (Sigma, 50 mg/kg in 10 mM of citrate buffer, pH 4.5) following an overnight fasting. Control rats received an injection of citrate buffer alone. Blood glucose levels were checked at 24 hours following the last STZ injection and once a week thereafter, and only the animals with glucose levels higher than 350 mg/dl were considered diabetic. Rats with hyperglycemia for 2 weeks were used for these experiments.
Intravitreal injection of compounds: Thalidomide and the phenylphthalimide analogs Compounds 1, 2 and Compound 4 were dissolved in vehicle (BN rat serum) and sterilized by filtration. OIR and STZ-diabetic BN rats received an intravitreal injection of 0.5-2.0 μg/eye of (5 μl/eye, 0.1-0.4 mg/ml in BN rat serum) of thalidomide, Compounds 1, 2 or Compound 4 into the right eye and the equal volume of the BN rat serum into the left eye.
Evans blue dye (Sigma) was dissolved in 0.9% saline (30 mg/ml), sonicated for 5 min and filtered through a 0.45-μm filter (Millipore). The rats were then anesthetized, and Evans blue (30 mg/kg) was injected over 10 s through the femoral vein using a glass capillary under microscopic inspection. Evans blue non-covalently binds to plasma albumin in the blood stream. Immediately after Evans blue infusion, the rats turned visibly blue, confirming their uptake and distribution of the dye. The rats were kept on a warm pad for 2 h to ensure the complete circulation of the dye. Then the chest cavity was opened, and the rats were perfused via the left ventricle with 1% paraformaldehyde in citrate buffer (pH 4.2) which was pre-warmed to 37° C. to prevent vasoconstriction. The perfusion lasted 10 min under the physiological pressure of 120 mmHg, in order to clear the dye from the vessel. Immediately after perfusion, the eyes were enucleated and the retinas were carefully dissected under an operating microscope. Evans blue dye was extracted by incubating each sample in 150 μl of formamide for 18 h at 70° C. The extract was centrifuged (Beckman) at 70,000 rpm (Rotor type: TLA 100.3) for 20 min at 4° C. Absorbance was measured using 100 μl of the supernatant at 620 nm by using Spectrophotometer DU800 (Beckman). The concentration of Evans blue in the extract was calculated from a standard curve of Evans blue in formamide and normalized by the total protein concentration in each sample. Results were expressed in mg of Evans blue per mg of total protein content.
Diabetes was induced by injection of STZ (50 mg/kg, i.v.) into adult BN rats after overnight fasting. Blood glucose levels were monitored at the second day after the injection and once a week thereafter. Rats with glucose levels above 350 mg/dl were considered as diabetic and used for the study. thalidomide, Compounds 1, 2 and 4 were separately injected into the vitreous space (5 μl, 0.8 mM in BN rat serum) of the right eye of STZ-diabetic rats 2 wks after the induction of diabetes. At 48 h after the injection, retinal vascular leakage was measured using the Evans blue-albumin leakage method.
To determine the dose-response relationship of the effect of Compound 4 and thalidomide, the STZ-diabetic rats received an intravitreal injection of Compound 4 and thalidomide with doses of 0.5, 0.75 and 1.0 μg/eye (5 μl/eye of 0.10, 0.15 and 0.20 mg/ml), respectively.

With `Nc1cccc2c1C(=O)N(C1CCC(=O)NC1=O)C2=O` (stereo not drawn) [Actimid], in the experiment with HUVEC [1], the IC50 was greater than 100 µM.
Turning to `Nc1cccc2c1CN(C1CCC(=O)NC1=O)C2=O` (stereo not drawn) [Revimid], in the experiment on HUVEC [1], the IC50 was greater than 100 µM.
As to `CC(C)c1cccc(C(C)C)c1N1C(=O)c2ccccc2C1=O` [Compound 2, (2,6-diisopropylphenyl)-1H-isoindole-1,3-dione], the IC50 in the experiment with BRCEC was determined as 3.56 µM; in the experiment with HUVEC [1], 3 µM.
Take `Cc1cc(C)c(/C=C2\C(=O)Nc3ccccc32)[nH]1` [SU5416]: the “ED50, dose reducing blood vessel number to 50% of VEGF/bFGF alone group” value in experiment [2] worked out at 7.8 μg/embryo.
For the molecule `CC(C)c1cccc(C(C)C)c1N1C(=O)c2ccc(O)cc2C1=O` [Compound 1], the IC50 came out at 1.94 µM with BRCEC, 1 µM in the experiment on HUVEC [3] and 3.3 µM with HUVEC [1]. Further, the “reduction of retinal vascular leakage vs vehicle control” value in the experiment on STZ-diabetic rats is given as 61%.
